Source: patent US10858356B2, “Pyrazolopyridine derivative having GLP-1 receptor agonist effect” (Chugai Seiyaku Kabushiki Kaisha, priority 2016, dated 2020)

Target: human GLP1R (Homo sapiens (Human), UniProt P43220)
Test: In vitro cAMP signal activation in human GLP1R stably-expressing cell line (hGLP1R-HEK293)
Assay type: cell-based
Settings: cAMP concentration in hGLP1R-HEK293; 100% = 1 nM human GLP-1 (7-37)
Protocol: <Test Example 1> Measurement of In Vitro cAMP Signal Activation of a Compound in Human GLP1R
A human GLP1R stably-expressing cell line (hGLP1R-HEK293) was used in the experiment. The cells were cultured in a Dulbecco's modified Eagle's medium (DMEM) containing 10% fetal bovine serum (Sigma-Aldrich), 100 units/mL penicillin G and 100 μg/mL streptomycin sulfate (Gibco), and 500 μg/mL Geneticin (Gibco), under a moist atmosphere containing 5% CO2, at 37° C.
hGLP1R-HEK293 was seeded in 96 well plates at 2.0×10^4 cells per well and cultured over night. The medium for culturing the cells was changed to 50 μL of Medium A (DMEM, 20 mM HEPES, 0.05% BSA, 0.5 mM 3-isobutyl-1-methylxanthine) the next day, and the cells were incubated at 37° C. for 30 min. Then, 50 μL of Medium B (DMEM, 20 mM HEPES, 0.05% BSA, 0.5 mM 3-isobutyl-1-methylxanthine) containing GLP-1 or the compound was added, and the cells were incubated at 37° C. for an additional 30 min. Then, 100 μL of Assay lysis buffer (Applied Bioscience) was added, and the cells were incubated at 37° C. for 30 min. The cAMP concentration was quantified using cAMP HiRange kit (Cisbio Bioassays).
By setting the cAMP concentration when the human GLP-1 (7-37) was put into action at a concentration of 1 nM to 100%, the cAMP concentration of each well was converted to a reaction rate (%).

Sequence of human GLP1R (P43220 24-463): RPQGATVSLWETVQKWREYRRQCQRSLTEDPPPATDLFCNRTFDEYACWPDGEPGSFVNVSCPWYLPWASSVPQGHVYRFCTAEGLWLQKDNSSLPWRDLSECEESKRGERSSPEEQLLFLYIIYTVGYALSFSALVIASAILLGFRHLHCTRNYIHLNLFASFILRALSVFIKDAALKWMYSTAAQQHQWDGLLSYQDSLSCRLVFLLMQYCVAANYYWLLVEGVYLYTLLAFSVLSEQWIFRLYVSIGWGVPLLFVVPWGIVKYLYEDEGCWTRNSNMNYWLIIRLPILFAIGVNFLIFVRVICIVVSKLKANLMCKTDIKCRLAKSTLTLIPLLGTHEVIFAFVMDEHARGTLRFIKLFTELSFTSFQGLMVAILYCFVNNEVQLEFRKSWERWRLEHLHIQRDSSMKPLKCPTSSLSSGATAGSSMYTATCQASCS

Row | Structure (SMILES) | EC50 [nM]
1 | COCCn1ncc2c(F)c(-n3ccn(-c4c5c(nn4-c4cc(C)c(Cl)c(C)c4)CCN(C(=O)c4cc6cc([C@H]7CCOC(C)(C)C7)ccc6n4[C@@]4(c6noc(=O)[nH]6)C[C@@H]4C)[C@H]5C)c3=O)ccc21 [Example 43, 3-[(1S,2S)-1-[2-[(4S)-2-(4-chloro-3,5-dimethylphenyl)-3-[3-[4-fluoro-1-(2-methoxyethyl)indazol-5-yl]-2-oxoimidazol-1-yl]-4-methyl-6,7-dihydro-4H-pyrazolo[4,3-c]pyridine-5-carbonyl]-5-[(4S)-2,2-dimethyloxan-4-yl]indol-1-yl]-2-methylcyclopropyl]-4H-1,2,4-oxadiazol-5-one] | 1.5
2 | Cc1cc(-n2nc3c(c2-n2ccn(-c4ccc5c(cnn5CC(F)(F)F)c4F)c2=O)[C@H](C)N(C(=O)c2cc4cc(C5CCOCC5)ccc4n2[C@@]2(c4noc(=O)[nH]4)C[C@@H]2C)CC3)cc(C)c1Cl [Example 44, 3-[(1S,2S)-1-[2-[(4S)-2-(4-chloro-3,5-dimethylphenyl)-3-[3-[4-fluoro-1-(2,2,2-trifluoroethyl)indazol-5-yl]-2-oxoimidazol-1-yl]-4-methyl-6,7-dihydro-4H-pyrazolo[4,3-c]pyridine-5-carbonyl]-5-(oxan-4-yl)indol-1-yl]-2-methylcyclopropyl]-4H-1,2,4-oxadiazol-5-one] | 1.5
3 | Cc1cc(-n2nc3c(c2-n2ccn(-c4ccc5c(cnn5C)c4)c2=O)[C@H](C)N(C(=O)c2cc4cc([C@H]5CCO[C@@H](C)C5)ccc4n2[C@@]2(c4noc(=O)[nH]4)C[C@@H]2C)CC3)cc(C)c1F [compound 61, 3-[(1S,2S)-1-[2-[(4S)-2-(4-fluoro-3,5-dimethylphenyl)-4-methyl-3-[3-(1-methylindazol-5-yl)-2-oxoimidazol-1-yl]-6,7-dihydro-4H-pyrazolo[4,3-c]pyridine-5-carbonyl]-5-[(2S,4S)-2-methyloxan-4 yl]indol-1-yl]-2-methylcyclopropyl]-4H-1,2,4-oxadiazol-5-one] | 1.6
4 | Cc1cc(-n2nc3c(c2-n2ccn(-c4ccc5c(cnn5[C@@H]5CCOC5)c4)c2=O)[C@H](C)N(C(=O)c2cc4cc(C5CCOCC5)cc(F)c4n2[C@@]2(c4noc(=O)[nH]4)C[C@@H]2C)CC3)cc(C)c1F [compound 64] | 2
5 | COCCn1ncc2c(F)c(-n3ccn(-c4c5c(nn4-c4ccc(F)c(C)c4)CCN(C(=O)c4cc6cc([C@H]7CCOC(C)(C)C7)ccc6n4[C@@]4(c6noc(=O)[nH]6)C[C@@H]4C)[C@H]5C)c3=O)ccc21 [Example 48, 3-[(1S,2S)-1-[5-[(4S)-2,2-dimethyloxan-4-yl]-2-[(4S)-3-[3-[4-fluoro-1-(2-methoxyethyl)indazol-5-yl]-2-oxoimidazol-1-yl]-2-(4-fluoro-3-methylphenyl)-4-methyl-6,7-dihydro-4H-pyrazolo[4,3-c]pyridine-5-carbonyl]indol-1-yl]-2-methylcyclopropyl]-4H-1,2,4-oxadiazol-5-one] | 3
6 | COCCn1ncc2cc(-n3ccn(-c4c5c(nn4-c4cc(C)c(F)c(C)c4)CCN(C(=O)c4cc6cc(C7CCOCC7)cnc6n4[C@@]4(c6noc(=O)[nH]6)C[C@@H]4C)C5)c3=O)ccc21 [compound 56, 3-[(1S,2S)-1-[2-[2-(4-fluoro-3,5-dimethylphenyl)-3-[3-[1-(2-methoxyethyl)indazol-5-yl]-2-oxoimidazol-1-yl]-6,7-dihydro-4H-pyrazolo[4,3-c]pyridine-5-carbonyl]-5-(oxan-4-yl)pyrrolo[2,3-b]pyridin-1-yl]-2-methylcyclopropyl]-4H-1,2,4-oxadiazol-5-one] | 3.4
7 | Cc1cc(-n2nc3c(c2-n2ccn(-c4ccc5c(cnn5[C@H]5CCOC5)c4)c2=O)[C@H](C)N(C(=O)c2cc4cc(C5CCOCC5)ccc4n2[C@@]2(c4noc(=O)[nH]4)C[C@@H]2C)CC3)cc(C)c1F [Example 22, 3-[(1S,2S)-1-[2-[(4S)-2-(4-fluoro-3,5-dimethylphenyl)-4-methyl-3-[2-oxo-3-[1-[(3S)-oxolan-3-yl]indazol-5-yl]imidazol-1-yl]-6,7-dihydro-4H-pyrazolo[4,3-c]pyridine-5-carbonyl]-5-(oxan-4-yl)indol-1-yl]-2-methylcyclopropyl]-4H-1,2,4-oxadiazol-5-one] | 2.3
8 | Cc1cc(-n2nc3c(c2-n2ccn(-c4ccc5c(cnn5C)c4)c2=O)CN(C(=O)c2cc4cc(N5CCOC6(CC6)C5)ccc4n2[C@@]2(c4noc(=O)[nH]4)C[C@@H]2C)CC3)cc(C)c1F [compound 52] | 6.7
9 | Cc1cc(-n2nc3c(c2-n2ccn(-c4ccc5c(cnn5C)c4)c2=O)[C@H](C)N(C(=O)c2cc4cc(C5CCOCC5)ccc4n2[C@@]2(c4noc(=O)[nH]4)C[C@@H]2C)[C@H](C)C3)cc(C)c1F [compound 80, 3-[(1S,2S)-1-[2-[(4S,6R)-2-(4-fluoro-3,5-dimethylphenyl)-4,6-dimethyl-3-[3-(1-methylindazol-5-yl)-2-oxoimidazol-1-yl]-6,7-dihydro-4H-pyrazolo[4,3-c]pyridine-5-carbonyl]-5-(oxan-4-yl)indol-1-yl]-2-methylcyclopropyl]-4H-1,2,4-oxadiazol-5-one] | 2.4
10 | COCCn1ncc2c(F)c(-n3ccn(-c4c5c(nn4-c4cc(C)c(Cl)c(C)c4)CCN(C(=O)c4cc6cc(C7CCOCC7)ccc6n4[C@@]4(c6noc(=O)[nH]6)C[C@@H]4C)[C@H]5C)c3=O)ccc21 [Example 45, 3-[(1S,2S)-1-[2-[(4S)-2-(4-chloro-3,5-dimethylphenyl)-3-[3-[4-fluoro-1-(2-methoxyethyl)indazol-5-yl]-2-oxoimidazol-1-yl]-4-methyl-6,7-dihydro-4H-pyrazolo[4,3-c]pyridine-5-carbonyl]-5-(oxan-4-yl)indol-1-yl]-2-methylcyclopropyl]-4H-1,2,4-oxadiazol-5-one] | 1.6
11 | CC[C@H]1CN(c2ccc3c(c2)cc(C(=O)N2CCc4nn(-c5cc(C)c(F)c(C)c5)c(-n5ccn(-c6ccc7c(cnn7C)c6)c5=O)c4C2)n3[C@@]2(c3noc(=O)[nH]3)C[C@@H]2C)CCO1 [compound 53] | 2.9

The next compounds have a lower EC50 than those just listed; values first:

Row | EC50 [nM] | Structure (SMILES)
12 | 1.4 | Cc1cc(-n2nc3c(c2-n2ccn(-c4ccc5c(cnn5CC5(C)COC5)c4F)c2=O)[C@H](C)N(C(=O)c2cc4cc(C5CCOCC5)ccc4n2[C@@]2(c4noc(=O)[nH]4)C[C@@H]2C)CC3)cc(C)c1F [Example 29, 3-[(1S,2S)-1-[2-[(4S)-2-(4-fluoro-3,5-dimethylphenyl)-3-[3-[4-fluoro-1-[(3-methyloxetan-3-yl)methyl]indazol-5-yl]-2-oxoimidazol-1-yl]-4-methyl-6,7-dihydro-4H-pyrazolo[4,3-c]pyridine-5-carbonyl]-5-(oxan-4-yl)indol-1-yl]-2-methylcyclopropyl]-4H-1,2,4-oxadiazol-5-one]
13 | 1.3 | Cc1cc(-n2ccn(-c3c4c(nn3-c3cc(C)c(F)c(C)c3)CCN(C(=O)c3cc5cc(C6CCOCC6)ccc5n3[C@@]3(c5noc(=O)[nH]5)C[C@@H]3C)[C@H]4C)c2=O)ccc1OCCO [Example 19, 3-[(1S,2S)-1-[2-[(4S)-2-(4-fluoro-3,5-dimethylphenyl)-3-[3-[4-(2-hydroxyethoxy)-3-methylphenyl]-2-oxoimidazol-1-yl]-4-methyl-6,7-dihydro-4H-pyrazolo[4,3-c]pyridine-5-carbonyl]-5-(oxan-4-yl)indol-1-yl]-2-methylcyclopropyl]-4H-1,2,4-oxadiazol-5-one]
14 | 1.3 | Cc1cc(-n2nc3c(c2-n2ccn(-c4ccc5c(C)nsc5c4)c2=O)[C@H](C)N(C(=O)c2cc4cc(C5CCOCC5)ccc4n2[C@@]2(c4noc(=O)[nH]4)C[C@@H]2C)CC3)cc(C)c1F [Example 18, 3-[(1S,2S)-1-[2-[(4S)-2-(4-fluoro-3,5-dimethylphenyl)-4-methyl-3-[3-(3-methyl-1,2-benzothiazol-6-yl)-2-oxoimidazol-1-yl]-6,7-dihydro-4H-pyrazolo[4,3-c]pyridine-5-carbonyl]-5-(oxan-4-yl)indol-1-yl]-2-methylcyclopropyl]-4H-1,2,4-oxadiazol-5-one]
15 | 1.4 | Cc1cc(-n2nc3c(c2-n2ccn(-c4ccc5c(cnn5CC(C)(C)O)c4F)c2=O)[C@H](C)N(C(=O)c2cc4cc(C5CCOCC5)ccc4n2[C@@]2(c4noc(=O)[nH]4)C[C@@H]2C)CC3)cc(C)c1F [Example 30, 3-[(1S,2S)-1-[2-[(4S)-2-(4-fluoro-3,5-dimethylphenyl)-3-[3-[4-fluoro-1-(2-hydroxy-2-methylpropyl)indazol-5-yl]-2-oxoimidazol-1-yl]-4-methyl-6,7-dihydro-4H-pyrazolo[4,3-c]pyridine-5-carbonyl]-5-(oxan-4-yl)indol-1-yl]-2-methylcyclopropyl]-4H-1,2,4-oxadiazol-5-one]
16 | 0.81 | Cc1cc(-n2nc3c(c2-n2ccn(-c4ccc5c(cnn5C)c4)c2=O)[C@H](C)N(C(=O)c2cc4cc([C@H]5CCOC(C)(C)C5)ccc4n2[C@@]2(c4noc(=O)[nH]4)C[C@@H]2C)CC3)cc(C)c1F [compound 66, 3-[(1S,2S)-1-[5-[(4S)-2,2-dimethyloxan-4-yl]-2-[(4S)-2-(4-fluoro-3,5-dimethylphenyl)-4-methyl-3-[3-(1-methylindazol-5-yl)-2-oxoimidazol-1-yl]-6,7-dihydro-4H-pyrazolo[4,3-c]pyridine-5-carbonyl]indol-1-yl]-2-methylcyclopropyl]-4H-1,2,4-oxadiazol-5-one]
